Source: paper PMC10221320
Positions of bridges follow the written chain, without caps; N, C: chain ends. No end group written: not given here.

Columns and labels:
[1] = system: CD-1 mice; test: Nociceptive reaction to direct hind paw pad injection; type: in vivo, mouse; conditions: 1 mg/kg in the hind paw pad; 15 min
Procedure: (§1) The animal studies were performed under the European Commission’s legislation (Directives 86/609/EEC, 2010/63/EU), the National Standard of the Russian Federation “Good Laboratory Practice” (GOST P 53434-2009, Moscow, Russia), and Committee on Ethics of Laboratory Animal Handling № 05/21, 20 September 2021 and 08/21, 30 December 2021 protocols (PIBOC FEB RAS). Adult female CD-1 mice weighing 25 ± 2 g were subjected to a 12 h light–dark cycle at room temperature and with ad libitum access to food and water. There were seven or eight individuals in each group.
For a direct Hmg 1b-4 injection (to eliminate the nociceptive reaction of potentiator of ASIC3 channels), it was dissolved in saline and administered at a dose of 1 mg/kg in the hind paw pad. The control group was injected with an identical volume (20 µL) of saline. The animals were placed individually, and a nociceptive reaction was registered for 15 min.

[2] = system: CD-1 mice; test: Acetic-acid-induced writhings (acid-induced muscle pain model); type: in vivo, mouse
Procedure: as §1
Three groups of animals were treated with peptides at doses of 0.01, 0.1 and 1 mg/kg (intravenously) 15 min before an injection of 300 μL of a 0.7% acetic acid solution. The control animal group received an identical volume of saline. The positive control group received intravenously a dose 1 mg/kg of diclofenac (Hemofarm A.D., Vršac, Serbia), a commercial drug of the NSAID group. Fifteen minutes immediately after acid administration, the number of writhings and the writhing time (time in a spasmodic state) were counted.

[3] = system: rat ASIC1a (rASIC1a); set-up: method as in PMID 29684594, PMID 32326130; conditions: ref [40],[41]; read-out: IC50, inhibition of rASIC1a; cited from earlier work
[4] = system: CD-1 mice; test: Complete Freund's adjuvant-induced acute inflammation; type: in vivo, mouse
Procedure: as §1
Three groups of animals were treated with peptides at doses of 0.01, 0.1 and 1 mg/kg (intravenously) 30 min before the induction of inflammation. The control animal group received an identical volume of saline. The positive control group received diclofenac (Hemofarm A.D., Vršac, Serbia) at a dose of 1 mg/kg. The edema was induced by a 20 µL injection of complete Freund’s adjuvant (CFA) (MP Biomedicals, Irvine, CA, USA) in the hind paw pad. The resulting edema was measured at 1, 2, 4, 24 and 48 h using a plethysmometer (Ugo Basile, Gemonio (VA), Italy). The anti-inflammatory threshold was estimated as a decrease in the paw volume and volume growth index (%), calculated using the formula: Volume Growth Index (%) = [(VCFA − Vi)/Vi] × 100, (1), where VCFA is the volume of the paw after the introduction of CFA and Vi is the volume of the paw before the introduction of CFA.

[5] = system: CD-1 mice; test: Open field test; type: in vivo, mouse; conditions: for N (c.z.), number of visits to central zone / N (def), number of bowel movements / N (peeps), number of peeps into minks / N (racks), vertical activity / N (s.p.), number of visits to side platform / S (act), distance traveled during activity / S, distance traveled / T (act), activity time / T (b.z.), staying on the border zone / T (c.z.), time spent on the central zone / T (e.c.z.), time of exit from the central zone / T (pass), passivity time / V(act), average movement speed during activity / V, average travel speed: mean ± SD
Procedure: as §1
The animal activity and anxiety-related and exploratory behaviors were estimated at the open field facility (OpenScience, Krasnogorsk, Russia). Three groups of animals were treated with peptides at doses of 0.01, 0.1 and 1 mg/kg (intravenously) 30 min before testing. The control group was injected with an identical volume (50 µL) of saline. The animals were placed in the center of the lightened arena, and the recording lasted 3 min. Using the software “Minotaur” (LLC “Neurobiotics”, Zelenograd, Russia), 14 parameters were estimated: time (T) of activity (act); passivity (pass); spent on the central zone (c.z.), staying on the border zone (b.z.); exit from the central zone (e.c.z.); average travel speed (V, m/s); average movement speed during activity (V(act)); distance traveled (S, m); distance traveled during activity (S (act)); number (N) of visits to central zone (c.z.); visits to side platform (s.p.); vertical activity (racks); peeps into minks (peeps); and bowel movements (def).

[6] = i.v. 15 min before 0.7% acetic acid
[7] = 0.01 mg/kg i.v. 30 min before testing, n = 7–8
[8] = 0.1 mg/kg i.v. 30 min before testing, n = 7–8
[9] = 1 mg/kg i.v. 30 min before testing, n = 7–8

GTPCDCYGYTGVYWFMLSRCPSGYGYNLSCHYFMGICCVKR (disulfide 4-37, 6-30, 20-38 (inferred)) [Hmg 1b-4]
nociceptive reaction [1]: did not induce a nociceptive reaction
difference in analgesic activity between the two peptides ([2]; i.v.): no significant difference in analgesic activity between each other
reduction in duration of writhings vs control [2, 6]: more than 2.5 times
reduction in number of writhings vs control [2, 6]: 1.5 times
IC50 [3]: 1250 nM
decrease in paw volume and growth index of edema ([4]; 1 mg/kg i.v.): more than 1.5 times
anti-inflammatory effect ([4]; 0.01, 0.1 and 1 mg/kg i.v. 30 min before CFA): demonstrated an anti-inflammatory effect at all tested doses
paw edema volume decrease compared with diclofenac ([4]; 1 and 0.1 mg/kg i.v., diclofenac 1 mg/kg i.v.): greater than the decreases caused by diclofenac
anti-inflammatory effectiveness vs other APETx-like / sea anemone peptides ([4]; comparison with APETx2 and Ugr 9-1 data of ref [34]): significantly superior not only to Hmg 1b-2, but also to APETx2 and Ugr 9-1
N (c.z.), number of visits to central zone [5, 7]: 12 ± 0.8
N (def), number of bowel movements [5, 7]: 1.2 ± 0.2
N (peeps), number of peeps into minks [5, 7]: 8.0 ± 0.5
N (racks), vertical activity [5, 7]: 27.2 ± 1.9
N (s.p.), number of visits to side platform [5, 7]: 13.3 ± 1.1
S (act), distance traveled during activity [5, 7]: 25.0 ± 2.4 m
S, distance traveled [5, 7]: 25.0 ± 1.8 m
T (act), activity time [5, 7]: 113.5 ± 9.5 s
T (b.z.), staying on the border zone [5, 7]: 145.4 ± 5.2 s
T (c.z.), time spent on the central zone [5, 7]: 34.2 ± 2.8 s
T (e.c.z.), time of exit from the central zone [5, 7]: 6.5 ± 3.1 s
T (pass), passivity time [5, 7]: 64.2 ± 7.4 s
V(act), average movement speed during activity [5, 7]: 0.22 ± 0.02 m/s
V, average travel speed [5, 7]: 0.14 ± 0.02 m/s
N (c.z.), number of visits to central zone [5, 8]: 21.2 ± 6.1
N (def), number of bowel movements [5, 8]: 0
N (peeps), number of peeps into minks [5, 8]: 7.8 ± 2.1
N (racks), vertical activity [5, 8]: 37.0 ± 7.8
N (s.p.), number of visits to side platform [5, 8]: 20.1 ± 6.4
S (act), distance traveled during activity [5, 8]: 24.2 ± 5.1 m
S, distance traveled [5, 8]: 24.2 ± 5.1 m
T (b.z.), staying on the border zone [5, 8]: 127.5 ± 10.0 s
T (c.z.), time spent on the central zone [5, 8]: 53.8 ± 10.3 s
T (e.c.z.), time of exit from the central zone [5, 8]: 6.1 ± 3.3 s
T (pass), passivity time [5, 8]: 55.1 ± 11.1 s
V(act), average movement speed during activity [5, 8]: 0.22 ± 0.03 m/s
V, average travel speed [5, 8]: 0.14 ± 0.03 m/s
T (act), activity time ([5]; 0.1 mg/kg i.v. 30 min before testing, n = 7–8 (SD on next line: Hmg 1b-2 10.7, Hmg 1b-4 13.1)): 122.3 s
time spent in the center of the arena ([5]; 0.1 mg/kg i.v., vs control): increased the time the animals spent in the center of the arena
N (c.z.), number of visits to central zone [5, 9]: 16.8 ± 2.7
N (def), number of bowel movements [5, 9]: 0.5 ± 0.7
N (peeps), number of peeps into minks [5, 9]: 9.0 ± 1.5
N (racks), vertical activity [5, 9]: 37.4 ± 3.9
N (s.p.), number of visits to side platform [5, 9]: 16.9 ± 2.8
S (act), distance traveled during activity [5, 9]: 24.6 ± 7.5 m
S, distance traveled [5, 9]: 24.6 ± 2.3 m
T (b.z.), staying on the border zone [5, 9]: 143.8 ± 8.2 s
T (c.z.), time spent on the central zone [5, 9]: 34.9 ± 5.9 s
T (e.c.z.), time of exit from the central zone [5, 9]: 6.4 ± 2.4 s
T (pass), passivity time [5, 9]: 56.8 ± 9.1 s
V(act), average movement speed during activity [5, 9]: 0.21 ± 0.02 m/s
V, average travel speed [5, 9]: 0.14 ± 0.01 m/s
T (act), activity time ([5]; 1 mg/kg i.v. 30 min before testing, n = 7–8 (SD on next line: Hmg 1b-4 10.4)): 119.9 s
number of vertical stances ([5]; 0.1 and 1 mg/kg i.v., vs control): increased
conclusion on CNS effect ([5]; i.v.): anxiolytic effect
effect on distance travelled and speed of movement ([5]; i.v.): did not affect these options
exploration activity (number of peeps into the holes) ([5]; i.v.): significantly increased the exploration activity of mice
most effective dose on peeps into the holes ([5]; i.v.): 1 mg/kg
percentage of the activity time ([5]; i.v., control group 50%, significant increase): 70%
